The values that follow come from patent publication US4263325A, “β-Receptor blocking compounds and treatment of cardiovascular disorders therewith” (priority 1979, dated 1981).

For one assay, the target named is T1, vascular β-receptors (Felis catus, UniProt Q9TST5).
T1 construct: All compounds were thereby tested in anaeshtetized cats; from tissue; host or cells: hind-leg vasculature of the living, reserpinized, anaesthetized cat (autoperfused)
The assay is described as follows: β-blockade of isoprenaline peripheral (vascular) resistance response, reserpinized anaesthetized cat, autoperfused hind leg. The class given is in vivo. The following applies: iv, i.v. test compound, isoproterenol 0.1 μg/kg i.v., dose reducing response to 50 percent. As to the method:
(§1) The agents of the present invention were tested as regards their biological properties. All compounds were thereby tested in anaeshtetized cats (males and females weighing 2.5-3.5 kg) pretreated with reserpine (5 mg/kg body-weight administered intramusculary) about 16 hours before the experiments. The animals were pretreated with reserpine in order to eliminate the endogenous sympathetic control of heart rate and vascular smooth muscle tone. The cats were anaesthetized with pentobarbital (30 mg/kg bodyweight administered i.p. ) and artificially ventilated with room air. A bilateral vagotomy was performed in the neck. Blood pressure was obtained from a cannulated carotid artery and heart rate was registered from a cardiotachometer, triggered by the electrocardiogram (ECG). Vascular resistance in one hind leg was recorded by an autoperfusion technique. Intrinsic beta mimetic activity on the heart was seen as increased heart rate after drug administration. The test compounds were given intravenously in logarithmically increasing doses. Before the first dose and between each of the following doses (0.012-51.2 μmol/kg) of the test compound a dose of isoproterenol (0.1 μg/kg) was injected intravenously. Blockade of the heart rate and vascular resistance response to isoproterenol was calculated for each dose and expressed as percent decrease of the response obtained when isoproterenol was injected before any dose of the test compound. Percent blockade was then plotted against the logarithm of the dose. ED50 values i.e. doses producing a reduction of the original response to isoproterenol to 50 percent were estimated from these dose-response curves. At the end of each experiment high doses of isoprenaline were given in order to obtain the maximal heart rate response.

For assay [1], the target named is T2, cardiac β-receptors (Felis catus, UniProt Q9TST6).
T2 construct: All compounds were thereby tested in anaeshtetized cats; from tissue; host or cells: heart of the living, reserpinized, anaesthetized cat
The assay is described as follows: β-blockade of isoprenaline heart rate response, reserpinized anaesthetized cat. The following applies: iv, i.v. test compound, isoproterenol 0.1 μg/kg i.v., dose reducing response to 50 percent. The class given is in vivo. The method, then: as §1

In a further assay the target is T3, α-receptors (Rattus norvegicus, UniProt P43140).
T3 construct: from tissue; host or cells: isolated rat vas deferens
T3 sequence (P43140 1-466): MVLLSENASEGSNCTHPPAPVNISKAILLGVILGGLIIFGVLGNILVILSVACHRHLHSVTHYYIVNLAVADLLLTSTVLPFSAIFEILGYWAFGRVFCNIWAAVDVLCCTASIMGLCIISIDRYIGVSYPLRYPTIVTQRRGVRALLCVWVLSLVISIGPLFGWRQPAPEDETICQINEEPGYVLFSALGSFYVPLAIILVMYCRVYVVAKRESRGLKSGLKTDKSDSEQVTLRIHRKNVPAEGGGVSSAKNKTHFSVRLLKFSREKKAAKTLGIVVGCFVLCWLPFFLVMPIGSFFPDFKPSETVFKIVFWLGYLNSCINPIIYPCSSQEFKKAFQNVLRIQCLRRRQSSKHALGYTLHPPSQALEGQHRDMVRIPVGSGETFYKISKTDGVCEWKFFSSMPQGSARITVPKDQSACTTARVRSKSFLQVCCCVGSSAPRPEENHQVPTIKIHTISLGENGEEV
Briefly: α-receptor blocking activity in isolated rat vas deferens (inhibition of noradrenaline contraction). The following applies: noradrenaline as agonist, high pA2 = high α-receptor blocking activity. The method, then:
α-receptor blocking activity was tested in isolated rat vas deferens. Noradrenaline administered to the organ bath induces a contraction in vas deferens by activating α-receptors. The ability of the test compounds to inhibit this noradrenaline response was studied. The α-receptor blocking activity was expressed as pA2 values. pA2 is defined as the negative logarithm of the concentration of an antagonist (in our case the test compounds) which leads to the fact that the dose of the agonist (in our case noradrenaline) has to be doubled in order to obtain the same effect of the agonist as that obtained without the antagonist present. Thus a high pA2 value indicates a high α-receptor blocking activity of a compound.

The target in assay [2] is T2, cardiac β-receptors. The assay is described as follows: Intrinsic beta mimetic activity on the heart (increase of heart rate), reserpinized anaesthetized cat. The settings on record: i.v.; for Intrinsic activity Δbeats/min: increase of heart rate after drug; for Intrinsic activity % of isoprenaline: maximal heart rate response obtained with high doses of isoprenaline. The format is in vivo. As to the method:
as §1

T1 sequence (Q9TST5 whole entry, the tested form may be a part): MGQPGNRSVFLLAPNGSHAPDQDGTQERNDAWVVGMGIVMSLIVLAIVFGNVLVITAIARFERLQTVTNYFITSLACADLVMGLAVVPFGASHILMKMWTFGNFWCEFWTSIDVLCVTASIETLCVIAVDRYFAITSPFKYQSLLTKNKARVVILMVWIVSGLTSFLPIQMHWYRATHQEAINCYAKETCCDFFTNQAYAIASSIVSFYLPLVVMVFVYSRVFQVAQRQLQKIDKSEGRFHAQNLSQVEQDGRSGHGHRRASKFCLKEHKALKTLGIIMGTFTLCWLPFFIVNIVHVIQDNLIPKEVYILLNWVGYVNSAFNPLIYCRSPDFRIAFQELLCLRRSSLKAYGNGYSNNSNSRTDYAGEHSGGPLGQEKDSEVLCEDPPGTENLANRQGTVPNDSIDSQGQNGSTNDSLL
T2 sequence (Q9TST6 whole entry): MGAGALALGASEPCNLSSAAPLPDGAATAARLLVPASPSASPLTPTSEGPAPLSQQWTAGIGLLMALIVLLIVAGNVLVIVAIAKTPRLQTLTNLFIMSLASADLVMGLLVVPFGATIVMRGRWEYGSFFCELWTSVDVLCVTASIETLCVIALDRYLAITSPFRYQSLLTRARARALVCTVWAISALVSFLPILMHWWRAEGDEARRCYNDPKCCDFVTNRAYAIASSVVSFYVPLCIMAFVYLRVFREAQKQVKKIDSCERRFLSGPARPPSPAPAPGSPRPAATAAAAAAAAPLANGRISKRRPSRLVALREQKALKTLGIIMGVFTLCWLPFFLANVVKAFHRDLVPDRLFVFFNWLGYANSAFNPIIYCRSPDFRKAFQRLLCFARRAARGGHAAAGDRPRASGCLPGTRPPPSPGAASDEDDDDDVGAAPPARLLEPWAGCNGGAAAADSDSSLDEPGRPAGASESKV

The ED50 is the midpoint of the dose-response relation. Low readings indicate greater potency, high ones weaker potency. Take `COc1ccc(OCCNCC(O)COc2ccccc2C)cc1OC` (centres unmarked) [CH3; 3,4-diOCH3, 3-[2-(3,4-dimethoxyphenoxy)-ethylamino]-1-o-methylphenoxy-propanol-2]: the 50% effective dose (ED50) on vascular β-receptors is 5.8 µmol/kg. This molecule also returned a 50% effective dose (ED50) on cardiac β-receptors [1] of 1.5 µmol/kg. Also, the Kb on α-receptors is 1 µM. Moreover, on cardiac β-receptors [2], the “Intrinsic activity Δbeats/min” value was 8 beats/min and the “Intrinsic activity % of isoprenaline” value was 11 % of isoprenaline.
The corresponding values for `COc1ccc(OCCNCC(O)COc2ccccc2C)cc1` (centres unmarked) [CH3; 4-OCH3, 3-[2-(4-methoxyphenoxy)-ethylamino]-1-o-methylphenoxy-propanol-2] are 8.2 µmol/kg, 0.5 µmol/kg, 1.58 µM, 17 beats/min and 22 % of isoprenaline.
The corresponding values for `Cc1ccccc1OCC(O)CNCCOc1ccccc1O` (centres unmarked) [CH3; 2-OH, 3-[2-(2-hydroxyphenoxy)-ethylamino]-1-o-methylphenoxy-propanol-2] are 17 µmol/kg, 0.6 µmol/kg, 1 µM, 30 beats/min and 29 % of isoprenaline.
`COc1ccccc1OCCNCC(O)COc1ccccc1C` (centres unmarked) [CH3; 2-OCH3, 3-[2-(2methoxyphenoxy)-ethylamino]-1-o-methylphenoxy-propanol-2]: the ED50 at vascular β-receptors was 11 µmol/kg; at cardiac β-receptors [1] it was 4.5 µmol/kg. The same molecule showed a Kb on α-receptors of 0.1 µM. Besides, at cardiac β-receptors [2], the “Intrinsic activity Δbeats/min” value is 8 beats/min. Further, the “Intrinsic activity % of isoprenaline” value on cardiac β-receptors [2] is reported as 8 % of isoprenaline.
In the case of `OCc1ccccc1OCC(O)CNCCOc1ccc(O)cc1` (centres unmarked) [HOCH2; pOH, 3-[2-(4-hydroxyphenoxy)-ethylamino]-1-o-hydroxymethylphenoxy-propanol-2], the median effective dose (ED50) on vascular β-receptors stood at 0.05 µmol/kg; at cardiac β-receptors [1], 0.02 µmol/kg. Moreover, at α-receptors, the Kb is 0.501 µM. For the same molecule, at cardiac β-receptors [2], the “Intrinsic activity Δbeats/min” value is listed as 17 beats/min.
`CCCc1ccccc1OCC(O)CNCCOc1ccc(O)cc1` (centres unmarked) [C3H7; pOH, 3-[2-(4-hydroxyphenoxy)-ethylamino]-1-o-propylphenoxy-propanol-2]: the 50% effective dose (ED50) at vascular β-receptors and at cardiac β-receptors [1] was 0.02 µmol/kg in each case. The same molecule gave a Kb on α-receptors of 0.126 µM. For the same molecule, the “Intrinsic activity Δbeats/min” value on cardiac β-receptors [2] was found to be 0 beats/min. In addition, the “Intrinsic activity % of isoprenaline” value on cardiac β-receptors [2] is listed as 0 % of isoprenaline.
